Measured values from PubChem BioAssay AID328 (DTP/NCI, 2004).
Values joined by “and” are separate entries in the source; they are usually repeats but may differ in a detail not shown here. Equal entries are not always repeated. Toxic doses and inconclusive results are not listed.

System: BDF1 mice, P388 leukemia ip, median survival T/C
Assay: NCI In Vivo Anticancer Drug Screen. Data for tumor model P388 Leukemia (intraperitoneal) in B6D2F1 (BDF1) mice
Details: endpoint: median survival time, higher = longer survival
How it was run: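 Transplantable tumour in mice; compound vs vehicle dosing; survival scored; ratio of treated to control reported.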

[1] = dose: 25.0 mg/kg/injection, schedule: Q01DX009 (ip), vehicle: saline
[2] = dose: 25.0 mg/kg/injection, schedule: Q04DX003 (ip), vehicle: saline
[3] = dose: 25.0 mg/kg/injection, schedule: Q01DX009 (ip), vehicle: saline with Tween-80
[4] = dose: 50.0 mg/kg/injection, schedule: Q01DX009 (ip), vehicle: saline with Tween-80
[5] = dose: 100.0 mg/kg/injection, schedule: Q01DX009 (ip), vehicle: saline with Tween-80
[6] = dose: 100.0 mg/kg/injection, schedule: Q04DX003 (ip), vehicle: saline with Tween-80
[7] = dose: 200.0 mg/kg/injection, schedule: Q01DX009 (ip), vehicle: saline with Tween-80
[8] = dose: 200.0 mg/kg/injection, schedule: Q04DX003 (ip), vehicle: saline with Tween-80
[9] = dose: 400.0 mg/kg/injection, schedule: Q01DX009 (ip), vehicle: saline with Tween-80
[10] = dose: 400.0 mg/kg/injection, schedule: Q04DX003 (ip), vehicle: saline with Tween-80

`COc1cc(/C=N/NC(=O)C[n+]2ccccc2)cc(OC)c1` was tested, and the T/C [1] was 104 % of control, the T/C [2] was 109 % of control and the T/C (dose: 50.0 mg/kg/injection, schedule: Q01DX009 (ip), vehicle: saline) was 100 % of control. The T/C (dose: 50.0 mg/kg/injection, schedule: Q04DX003 (ip), vehicle: saline) was 104 % of control and the T/C (dose: 100.0 mg/kg/injection, schedule: Q04DX003 (ip), vehicle: saline) was 86 % of control.

In the case of `O=C(O)c1cc2ccccc2o1`, the T/C [3] is reported as 100 % of control, the T/C [4] is reported as 104 % of control and the T/C [5] is reported as 109 % of control.

`COC(=O)NC1=C(N2CC2)C(=O)C(NC(=O)OC)=C(N2CC2)C1=O` was tested, and the T/C (dose: 0.37 mg/kg/injection, schedule: Q01DX009 (ip), vehicle: saline) was 242 % of control and 222 % of control and the T/C (dose: 0.75 mg/kg/injection, schedule: Q01DX009 (ip), vehicle: saline) was 252 % of control and 270 % of control.

With `Cn1c(=O)c2[nH]c(CN(CCCl)CCCl)nc2n(C)c1=O` the T/C (dose: 0.88 mg/kg/injection, schedule: Q04DX003 (ip), vehicle: saline with Tween-80) was 100 % of control, the T/C (dose: 1.32 mg/kg/injection, schedule: Q04DX003 (ip), vehicle: saline with Tween-80) was 109 % of control and the T/C (dose: 2.0 mg/kg/injection, schedule: Q04DX003 (ip), vehicle: saline with Tween-80) was 119 % of control. The T/C (dose: 2.4 mg/kg/injection, schedule: Q01DX009 (ip), vehicle: saline with Tween-80) was 154 % of control, the T/C (dose: 3.7 mg/kg/injection, schedule: Q01DX009 (ip), vehicle: saline with Tween-80) was 160 % of control and the T/C (dose: 5.56 mg/kg/injection, schedule: Q01DX009 (ip), vehicle: saline with Tween-80) was 163 % of control and 178 % of control. The T/C (dose: 8.33 mg/kg/injection, schedule: Q01DX009 (ip), vehicle: saline with Tween-80) was 172 % of control and the T/C (dose: 12.5 mg/kg/injection, schedule: Q01DX009 (ip), vehicle: saline with Tween-80) was 201 % of control.

In the case of `CC(OC(=O)Nc1cccc(Cl)c1)C(=O)O` (stereo not given), the T/C (dose: 100.0 mg/kg/injection, schedule: Q01DX009 (ip), vehicle: gum acacia) is reported as 107 % of control, the T/C (dose: 200.0 mg/kg/injection, schedule: Q01DX009 (ip), vehicle: gum acacia) is reported as 96 % of control and the T/C (dose: 400.0 mg/kg/injection, schedule: Q01DX009 (ip), vehicle: gum acacia) is reported as 100 % of control.

`COc1ccc(CNCCNCCNCc2ccc(OC)cc2)cc1` was tested, and the T/C [3] was 87 % of control, the T/C [4] was 105 % of control and the T/C [5] was 101 % of control and 105 % of control. For the same compound, the T/C [6] was 122 % of control, the T/C [7] was 93 % of control and the T/C [8] was 111 % of control. For the same compound, the T/C [9] was 101 % of control and the T/C [10] was 122 % of control.

`CC(=O)OCc1cc2ccccc2nc1C` was tested, and the T/C [6] was 100 % of control, the T/C [7] was 95 % of control and the T/C [8] was 104 % of control. The T/C [9] was 95 % of control and the T/C [10] was 100 % of control.

`Cc1ccc(NC(=O)COc2ccc(Cl)cc2Cl)cc1Cl` was tested, and the T/C [6] was 100 % of control, the T/C [8] was 90 % of control and the T/C [10] was 90 % of control.

With `O=C(CCN1CCCCC1)c1ccccc1` the T/C (dose: 12.5 mg/kg/injection, schedule: Q01DX009 (ip), vehicle: saline) was 89 % of control, the T/C [1] was 95 % of control and the T/C [2] was 95 % of control.

`c1ccc(OCC2c3ccccc3Nc3ccccc32)cc1` was tested, and the T/C (dose: 100.0 mg/kg/injection, schedule: Q01DX001 (ip), vehicle: saline with Tween-80) was 91 % of control, the T/C (dose: 200.0 mg/kg/injection, schedule: Q01DX001 (ip), vehicle: saline with Tween-80) was 94 % of control and the T/C (dose: 400.0 mg/kg/injection, schedule: Q01DX001 (ip), vehicle: saline with Tween-80) was 100 % of control.

For `O=C(/C=C/c1ccc(F)cc1)c1ccc(Cl)cc1`, the T/C [5] was 90 % of control, the T/C [7] was 90 % of control and the T/C [9] was 100 % of control.

For `C=CCC1CCSC1=O` (stereo not given), the T/C (dose: 25.0 mg/kg/injection, schedule: Q04DX003 (ip), vehicle: saline with Tween-80) was 100 % of control and 115 % of control, the T/C (dose: 50.0 mg/kg/injection, schedule: Q04DX003 (ip), vehicle: saline with Tween-80) was 103 % of control and 106 % of control and the T/C [6] was 101 % of control and 103 % of control and 119 % of control. The T/C [8] was 108 % of control.
